In US10364216B2, “Alkenyl sulfate ester or salt thereof” (Kao Corporation, priority 2013, dated 2019):
Structures can show the parent of a compound that is named as a salt.

Experiments:
[1] = Evaluation of sweetness (1)/(2): presence or absence of sweetness judged by examiners; assay type: in vivo, human
Procedure: Trans-3-octenyl sulfate was dissolved in water to be 1 wt %, which was taken as a test sample. Six examiners kept 50 μL of the prepared test sample in their mouth, and then drunk some water, and judged for presence or absence of sweetness.
Cis-3-octenyl sulfate was dissolved in water to 1 wt %, which was taken as a test sample. Four examiners kept 50 μL of the prepared test sample in their mouth, and then drunk some water, and judged presence or absence of sweetness.

[2] = system: oocytes not expressing ENaC; experiment: Control: inward current in oocytes not expressing ENaC; assay type: cell-based, Xenopus; settings: same procedure
Procedure: Inhibition activity of ENaC expressed in Xenopus oocytes was measured according to the method described in “The journal of biological chemistry, 284 (2): pages 792-798 (2009)”. Specifically, trans-3-octenyl sulfate was added to oocytes expressed with ENaC complex, and the activity of ENaC was analyzed electrophysiologically in accordance with the procedures described below.
Two micro-glass electrodes were inserted into the oocyte, and the membrane potential was fixed at −60 mV. At this time, Na^+ ion influx induced by ENaC complex in a constantly active state was measured with replacement to change of the current amount. Namely, in 115 mM NaCl solution (115 mM NaCl, 2.5 mM KCl, 1.8 mM CaCl2, 1 mM NaHCO3, 1 mM MgCl2 and 10 mM HEPES, pH 7.4) and under circumstances where inward current was caused by the oocytes, trans-3-octenyl sulfate dissolved in the same solution was administered.
This effect was similar to that of an existing ENaC inhibitor amiloride.

[3] = Action of reinforcing sweetness (previous intake of trans-3-octenyl sulfate); assay type: in vivo, human; settings: 5 mM, 60 seconds before sucralose or glycyrrhizin 0.25 mM
Procedure: To six examiners, 4 kinds of 10 mL aqueous solutions of sucrose standard (2.5, 5.0, 7.5 and 10.0 wt %) were presented. The examiners kept each of the solutions in their mouth for 5 seconds or so, and then spat the solution out, and were asked to consider the sweetness intensity at that time (0 to 15) to be 2.5, 5, 7.5 and 10, respectively. Next, the examiners kept 10 mL aqueous solution of sucralose (0.25 mM) in their mouth for 5 seconds or so without knowing the kind and the concentration of the sweetener, and then spat the solution out, and compared the sweetness intensity at that time with that of the aqueous sucrose standard solution, and evaluated the sweetness intensity with a number in a range of 0 to 15. Subsequently, the examiners kept 10 mL solution of 5 mM trans-3-octenyl sulfate in advance in their mouth for 5 seconds or so in advance, and then spat the solution out, and after passage of 60 seconds, the examiners kept 10 mL aqueous solution of sucralose (0.25 mM) in their mouth for 5 seconds or so, and then spat the solution out, and compared the sweetness intensity at that time with that of the aqueous sucrose standard solution, and evaluated the sweetness intensity with a number in a range of 0 to 15.
To six examiners, 4 kinds of 10 mL aqueous sucrose standard solutions (2.5, 5.0, 7.5 and 10.0 wt %) were presented. The examiners kept each of the solutions in their mouth for 5 seconds or so, and then spat the solution out, and were asked to consider the sweetness intensity at that time (0 to 15) to be 2.5, 5, 7.5 and 10, respectively. Next, the examiners kept 10 mL aqueous solution of glycyrrhizin (0.25 mM) in their mouth for 5 seconds or so without knowing the kind and the concentration of the sweetener, and then spat the solution out, and compared the sweetness intensity at that time with that of the aqueous sucrose standard solution, and evaluated the sweetness intensity with a number in a range of 0 to 15. Subsequently, the examiners kept 10 mL solution of 5 mM trans-3-octenyl sulfate in their mouth for 5 seconds or so in advance, and then spat the solution out, and after passage of 60 seconds, the examiners kept 10 mL aqueous solution of glycyrrhizin (0.25 mM) in their mouth for 5 seconds or so, and then spat the solution out, and compared the sweetness intensity at that time with that of the aqueous sucrose standard solution, and evaluated the sweetness intensity with a number in a range of 0 to 15.

[4] = 1 wt % in water, 50 μL kept in mouth, then water (13 ml), six examiners (trans), four examiners (cis)

**Q.** Which “No sweetness felt (number of examiners)” value [1, 4] does the source give for `CCCC/C=C/CCOS(=O)(=O)O` [trans-3-octenyl sulfate] here?
**A.** The value was 0.

**Q.** What about the “Sweetness felt (number of examiners)” value [1, 4] of the same compound?
**A.** The value was 6.

**Q.** What about the Duration of sweetness ([1]; 1 wt %, 50 μL, then water) of the same compound?
**A.** The Duration of sweetness was “the sweetness lasted for a certain time”.

**Q.** And the “Effect on inward current in oocytes not expressing ENaC” value [2]?
**A.** Its value is “not recognized”.

**Q.** What about the “Effect of previous intake on the sweetness of the sweetener” value [3] of the same compound?
**A.** Its value is “effect of reinforcing the sweetness of the sweetener”.
